Experimental data taken from patent US5332732A, “Thiophene and pyridine antipsychotic agents” (McNeilab, Inc., priority 1992, dated 1994).
Where a name gives a salt, the structure may show the parent alone.

System: Conditioned Avoidance Responding (Rat)
Experiment: Block of Conditioned Avoidance Responding (Rat) test (CAR)
Format: in vivo, Male Fischer 344 rats
Conditions: for % escape loss: group mean % failures to escape; for % Inhibition CAR: mean % change in CAR vs vehicle day, negative = blockade
Description: The antipsychotic activity of the compounds of the invention may be determined by the Block of Conditioned Avoidance Responding (Rat) test (CAR), the references being Cook, L. and E. Weidley in Ann. […] P. Reynolds Trends Pharmacol. Sci. 1992, 13, 116). […] Block of Conditioned Avoidance Responding (Rat) Apparatus: Rat operant chambers, housed within sound attenuated booths, both from […] Instruments Ltd., were used in this test. The test chamber (8" H×903/8" W×9" D) is constructed of aluminum and plexiglass with floor grid bars of stainless-steel (1/8" O.D.) spaced 9/16" apart. A stainless-steel operation level 11/2" wide projects 3/4" into the chamber and is positioned 2-2/8" above the grid floor. The shock stimulus is delivered via the grid floor by a Coulbourn Instruments solid state module. The parameters of the test and the collection of data are controlled automatically. Training: Male, Fischer 344 rats obtained from Charles River (Kingston, N.Y.) weighing more than 200 g, are individually housed with chow and water provided ad libitum. The rats are trained for two weeks to approach criterion levels in the avoidance test (90% avoidance rate). One-hour training sessions are run at about the same time each day for four or five days a week. The training session consists of 120 tdals, with the conditioned stimuli presented every 30 sec. A trial begins with presentation of the conditioned stimuli (a light and a tone). If the rat responds by depressing the operant lever during the 15-second presentation of the conditioned stimuli, the trial is terminated .and the animal is credited with a CAR. Failure to respond during the conditioned stimuli causes the presentation of the unconditioned stimulus (UCS), a 0.7 mA shock which is accompanied by a light and tone for […]. If the rat depressed the lever within the ten-second period, the shock and trial are terminated and an escape response recorded. If the rat fails to depress the lever during the UCS (shock), the trial is terminated after ten seconds of shock and the absence of a response is scored as a failure to escape. […] presses have no effect. If a rat performs at the 90% CAR level for two weeks, it is then run twice a week on the test schedule (see below) until baseline performance stabilized. Before any drug is administered, two weeks of CAR at a rate of 90% or better is required. Determination of ED50 Values Trained rats are run in a one-hour session on two consecutive days at the same time and in the same test chamber each day. The sessions consist of 60 trials, one every minute. The conditioned stimuli are presented for 15 sec (maximum) and the unconditioned stimuli five sec (maximum). On Day 1, a vehicle solution is administered to the rats at a time preceding the trial run corresponding to the pretreatment time for the test compound. The route of administration and the volume of vehicle are also matched to that of the test compound. […] The percent change in CAR on the drug treatment day compared to vehicle pretreatment day is the key measure. The percent change (% change) in CAR is determined using the following formula: % change CAR=((Day 2% CAR/Day 1% CAR)×100)-100 A negative number indicates a blockade of CAR, whereas a positive number would indicate increased CAR. The test results are reported as the mean % change for the group of rats. A reading of -20% is generally taken to represent a minimum value for a compound to be designated as active at a given dose in the CAR test. Failure to escape was calculated for each animal as follows: % Failures=# of Failures to Escape/# of trials The % failures, viz., loss of escape, is also reported as a group mean. Failures to escape are monitored closely and a session is terminated if ten failures occurred. ED50 values and 95% confidence limits are calculated using linear regression analysis.

Compound	% escape loss (5 mpk, PI) [%]	% Inhibition CAR (5 mpk, PI) [%]	% escape loss (15 mpk) [%]	% Inhibition CAR (15 mpk) [%]
CC(C)Oc1ccccc1N1CCN(Cc2ccc(C(=O)N3CCCCC3)s2)CC1.O=C(O)/C=C/C(=O)O [CP #1, 1-[[5-[[1-[2-(1-Methylethoxy)phenyl]-4-piperazinyl]methyl]-2-thienyl]carbonyl]piperidine Fumarate]	18	-56	–	–
CC(C)Oc1ccccc1N1CCN(Cc2cc(C(=O)N3CCCCC3)cs2)CC1.Cl [CP #2, 1-[[5-[[1-[2-(1-Methylethoxy)phenyl]-4-piperazinyl]methyl]-3-thienyl]carbonyl]piperidine Monohydrochloride]	34	-72	–	–
CC(C)Oc1ccccc1N1CCN(Cc2ccc(C(=O)N3CCCCCC3)s2)CC1 [CP #3, Hexahydro-1-[[5-[[1-[2-(1-methylethoxy)phenyl]-4-piperazinyl]methyl]2-thienyl]carbonyl]-1H-azepine Monohydrochloride Hemi Hydrate]	3	-8	–	–
CC(C)Oc1ccccc1N1CCN(Cc2cc(C(=O)N3CCCCCC3)cs2)CC1 [CP #4, Hexahydro-1-[5-[[-1-[2-(1-Methylethoxy)phenyl-4-piperazinyl]methyl]-3-thienyl]carbonyl]-1-H-azepine Hydrochloride Hydrate]	3	-41	–	–
CC(C)Oc1ccccc1N1CCN(Cc2ccc(CN3CCCCC3=O)s2)CC1 [CP #5, 1-[[5-[[1-[2-(1-Methylethoxy)phenyl-4-piperazinyl]methyl]-2-thienyl]methyl]-2-piperidinone Hydrochloride]	3	-58	–	–
O=C1CCCCN1Cc1ccc(CN2CCN(c3cccc4ccoc34)CC2)s1 [CP #6, 1-[[5-[[1-(7-Benzofuranyl)-4-piperazinyl]methyl]-2-thienyl]methyl]-2-piperidinone1.5 Fumarate Hydrate]	5	-63	–	–
CC(C)Oc1ccccc1N1CCN(Cc2cccc(CN3CCCCC3=O)n2)CC1 [CP #7, 1-[[6-[[1-[2-(Methylethoxy)phenyl]-4-piperazinyl]methyl]pyridinyl]methyl]-2-piperidinone Hydrochloride]	–	–	0	-85
